Assay results taken from patent publication US6737383B1, “Herbicidal oxadiazolidines” (priority 1999, dated 2004).

Experiments:
bamyardgrass = assay: Test B flood test barnyardgrass; format: in vivo, Echinochloa crus-galli
Experimental: (§1) At the same time, these crop and weed species were also treated with postemergence applications of test chemicals formulated in the same manner. Plants ranged in height from 2 to 18 cm (1- to 4-leaf stage) for postemergence treatments. Plant species in the flood test consisted of rice (Oryza sativa), smallflower flatsedge (Cyperus difformis), duck salad (Heteranthera limosa) and bamyardgrass (Echinochloa crus-galli) grown to the 2-leaf stage for testing. Treated plants and controls were maintained in a greenhouse for twelve to sixteen days, after which all species were compared to controls and visually evaluated. Plant response ratings, summarized in Table B, are based on a scale of 0 to 10 where 0 is no effect and 10 is complete control. A dash (−) response means no test result.

smallflower flatsedge = assay: Test B flood test smallflower flatsedge; format: in vivo, Cyperus difformis
Experimental: as §1

duck salad = assay: Test B flood test duck salad; format: in vivo, Heteranthera limosa
Experimental: as §1

corn = assay: Test B pre/postemergence corn; format: in vivo, Zea mays
Procedure, shortened: (§2)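 Test chemicals in a non-phytotoxic solvent mixture with surfactant were sprayed preemergence onto planted seeds and postemergence onto plants 2 to 18 cm tall (1- to 4-leaf stage). After twelve to sixteen days in a greenhouse, injury was visually rated against untreated controls from 0 (no effect) to 10 (complete control).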

crabgrass = assay: Test B pre/postemergence crabgrass; format: in vivo, Digitaria sanguinalis
Procedure, shortened: as §2

velvetleaf = assay: Test B pre/postemergence velvetleaf; format: in vivo, Abutilon theophrasti
Procedure, shortened: as §2

soybean = assay: Test B pre/postemergence soybean; format: in vivo, Glycine max
Procedure, shortened: as §2

cocklebur = assay: Test B pre/postemergence cocklebur; format: in vivo, Xanthium strumarium
Procedure, shortened: as §2

purple nutsedge = assay: Test B pre/postemergence purple nutsedge; format: in vivo, Cyperus rotundus
Procedure, shortened: as §2

pigweed = assay: Test B pre/postemergence pigweed; format: in vivo, Amaranthus retroflexus
Procedure, shortened: as §2

wild oat = assay: Test B pre/postemergence wild oat; format: in vivo, Avena fatua
Procedure, shortened: as §2

rape = assay: Test B pre/postemergence rape; format: in vivo, Brassica napus
Procedure, shortened: as §2

giant foxtail = assay: Test B pre/postemergence giant foxtail; format: in vivo, Setaria faberii
Procedure, shortened: as §2

blackgrass = assay: Test B pre/postemergence blackgrass; format: in vivo, Alopecurus myosuroides
Procedure, shortened: as §2

bedstraw = assay: Test B pre/postemergence bedstraw; format: in vivo, Galium aparine
Procedure, shortened: as §2

morningglory = assay: Test B pre/postemergence morningglory; format: in vivo, Ipomoea hederacea
Procedure, shortened: as §2

surinam grass = assay: Test B pre/postemergence surinam grass; format: in vivo, Brachiaria decumbens; conditions: Postemergence
Procedure, shortened: as §2

sugar beet = assay: Test B pre/postemergence sugar beet; format: in vivo, Beta vulgaris
Procedure, shortened: as §2

wheat = assay: Test B pre/postemergence wheat; format: in vivo, Triticum aestivum
Procedure, shortened: as §2

[1] = Rate 62 g/ha, flood test species, Pre-emergence, visual evaluation after twelve to sixteen days
[2] = Rate 125 g/ha, under heading Pre-emergence, flood test species, visual evaluation after twelve to sixteen days
[3] = Rate 250 g/ha, Pre-emergence (flood test species), scale 0 to 10, 0 is no effect, 10 is complete control
[4] = Rate 500 g/ha, Pre-emergence section of Table B, 0 to 10 scale (0 no effect, 10 complete control)
[5] = Postemergence, Rate 31 g/ha, visual rating, scale 0 to 10 (0 no effect, 10 complete control)
[6] = Postemergence, Rate 62 g/ha, scale 0 to 10, 0 is no effect, 10 is complete control
[7] = Postemergence, Rate 125 g/ha, scale of 0 to 10 where 0 is no effect and 10 is complete control
[8] = Preemergence, Rate 31 g/ha, visual rating, scale 0 to 10 (0 no effect, 10 complete control)
[9] = Preemergence, Rate 250 g/ha, scale 0 (no effect) to 10 (complete control)
[10] = Rate 62 g/ha, Preemergence, scale 0 to 10
[11] = Rate 125 g/ha, Preemergence, scale 0 to 10 (0 no effect, 10 complete control)
[12] = Rate 250 g/ha, Postemergence, scale 0 to 10, 0 is no effect, 10 is complete control

CC(C)N(C(=O)n1oc(=O)n(CCc2ccccc2)c1=O)c1ccc(Cl)cc1 [Compound 538] was tested, and the “Plant response rating, Barnyardgrass (0 to 10 scale, 0 is no effect, 10 is complete control)” value (bamyardgrass; [1]) was 0, the “Barnyardgrass plant response rating (0 to 10 scale, 0 is no effect, 10 is complete control)” value (bamyardgrass; [2]) was 0 and the “Barnyardgrass plant response rating” value (bamyardgrass; [3]) was 0. For the same compound, the “Barnyardgrass plant response rating” value (bamyardgrass; [4]) was 0, the “Plant response rating, S. Flatsedge (0 to 10 scale, 0 is no effect, 10 is complete control)” value (smallflower flatsedge; [1]) was 0 and the “S. Flatsedge plant response rating (0 to 10 scale, 0 is no effect, 10 is complete control)” value (smallflower flatsedge; [2]) was 0. The “S. Flatsedge plant response rating” value (smallflower flatsedge; [3]) was 0, the “S. Flatsedge plant response rating” value (smallflower flatsedge; [4]) was 0 and the “Plant response rating, Ducksalad (0 to 10 scale, 0 is no effect, 10 is complete control)” value (duck salad; [1]) was 0. The “Ducksalad plant response rating (0 to 10 scale, 0 is no effect, 10 is complete control)” value (duck salad; [2]) was 0, the “Ducksalad plant response rating” value (duck salad; [3]) was 0 and the “Ducksalad plant response rating” value (duck salad; [4]) was 0.

For CCOP(=O)(OCC)C(C)n1c(=O)on(C(=O)N(c2ccc(F)cc2F)C(C)C)c1=O (stereo not drawn) [Compound 776], the “Corn plant response rating” value (corn; [5]) was 0, the “Plant response rating, Corn” value (corn; [6]) was 0 and the “Corn plant response rating” value (corn; [7]) was 0. For the same compound, the “Corn plant response rating” value (corn; [8]) was 0, the “Corn plant response rating” value (corn; [9]) was 1 and the “Corn plant response rating” value (corn; [10]) was 0. For the same compound, the “Corn plant response rating” value (corn; [11]) was 0, the “Corn plant response rating” value (corn; [12]) was 0 and the “Crabgrass plant response rating” value (crabgrass; [5]) was 2. For the same compound, the “Plant response rating, Crabgrass” value (crabgrass; [6]) was 2, the “Crabgrass plant response rating” value (crabgrass; [7]) was 2 and the “Crabgrass plant response rating” value (crabgrass; [8]) was 5. The “Crabgrass plant response rating” value (crabgrass; [9]) was 9, the “Crabgrass plant response rating” value (crabgrass; [10]) was 5 and the “Crabgrass plant response rating” value (crabgrass; [11]) was 8. The “Crabgrass plant response rating” value (crabgrass; [12]) was 2, the “Velvetleaf plant response rating” value (velvetleaf; [5]) was 2 and the “Plant response rating, Velvetleaf” value (velvetleaf; [6]) was 3. For the same compound, the “Velvetleaf plant response rating” value (velvetleaf; [10]) was 0, the “Velvetleaf plant response rating” value (velvetleaf; [11]) was 0 and the “Velvetleaf plant response rating” value (velvetleaf; [12]) was 3. The “Soybean plant response rating” value (soybean; [5]) was 1, the “Plant response rating, Soybean” value (soybean; [6]) was 2 and the “Soybean plant response rating” value (soybean; [10]) was 0. For the same compound, the “Soybean plant response rating” value (soybean; [11]) was 0, the “Soybean plant response rating” value (soybean; [12]) was 2 and the “Cocklebur plant response rating” value (cocklebur; [5]) was 0. The “Plant response rating, Cocklebur” value (cocklebur; [6]) was 0, the “Cocklebur plant response rating” value (cocklebur; [7]) was 0 and the “Cocklebur plant response rating” value (cocklebur; [8]) was 0. The “Cocklebur plant response rating” value (cocklebur; [12]) was 0, the “Nutsedge plant response rating” value (purple nutsedge; [5]) was 0 and the “Plant response rating, Nutsedge” value (purple nutsedge; [6]) was 0. The “Nutsedge plant response rating” value (purple nutsedge; [7]) was 0, the “Nutsedge plant response rating” value (purple nutsedge; [10]) was 0 and the “Nutsedge plant response rating” value (purple nutsedge; [12]) was 0. For the same compound, the “Redroot pigweed plant response rating” value (pigweed; [5]) was 0, the “Plant response rating, Redroot pigweed” value (pigweed; [6]) was 2 and the “Redroot pigweed plant response rating” value (pigweed; [7]) was 2. The “Redroot pigweed plant response rating” value (pigweed; [10]) was 0, the “Redroot pigweed plant response rating” value (pigweed; [11]) was 0 and the “Redroot pigweed plant response rating” value (pigweed; [12]) was 2. The “Wild oats plant response rating” value (wild oat; [5]) was 0, the “Plant response rating, Wild oats” value (wild oat; [6]) was 0 and the “Wild oats plant response rating” value (wild oat; [10]) was 2. The “Wild oats plant response rating” value (wild oat; [11]) was 2, the “Wild oats plant response rating” value (wild oat; [12]) was 0 and the “Rape plant response rating” value (rape; [5]) was 0. The “Plant response rating, Rape” value (rape; [6]) was 2, the “Rape plant response rating” value (rape; [7]) was 2 and the “Rape plant response rating” value (rape; [10]) was 0. The “Rape plant response rating” value (rape; [11]) was 0, the “Rape plant response rating” value (rape; [12]) was 2 and the “Giant foxtail plant response rating” value (giant foxtail; [5]) was 2. The “Plant response rating, Giant foxtail” value (giant foxtail; [6]) was 2, the “Giant foxtail plant response rating” value (giant foxtail; [7]) was 2 and the “Giant foxtail plant response rating” value (giant foxtail; [8]) was 5. For the same compound, the “Giant foxtail plant response rating” value (giant foxtail; [9]) was 9, the “Giant foxtail plant response rating” value (giant foxtail; [10]) was 9 and the “Giant foxtail plant response rating” value (giant foxtail; [11]) was 9. The “Giant foxtail plant response rating” value (giant foxtail; [12]) was 2, the “Blackgrass plant response rating” value (blackgrass; [5]) was 2 and the “Plant response rating, Blackgrass” value (blackgrass; [6]) was 2. For the same compound, the “Blackgrass plant response rating” value (blackgrass; [7]) was 2, the “Blackgrass plant response rating” value (blackgrass; [8]) was 0 and the “Blackgrass plant response rating” value (blackgrass; [9]) was 2. The “Blackgrass plant response rating” value (blackgrass; [10]) was 0, the “Blackgrass plant response rating” value (blackgrass; [11]) was 0 and the “Blackgrass plant response rating” value (blackgrass; [12]) was 2. For the same compound, the “Bedstraw plant response rating” value (bedstraw; [5]) was 0, the “Plant response rating, Bedstraw” value (bedstraw; [6]) was 0 and the “Bedstraw plant response rating” value (bedstraw; [7]) was 3. The “Bedstraw plant response rating” value (bedstraw; [8]) was 0, the “Bedstraw plant response rating” value (bedstraw; [9]) was 0 and the “Bedstraw plant response rating” value (bedstraw; [10]) was 0. The “Bedstraw plant response rating” value (bedstraw; [11]) was 0, the “Bedstraw plant response rating” value (bedstraw; [12]) was 3 and the “Morningglory plant response rating” value (morningglory; [5]) was 4. The “Plant response rating, Morningglory” value (morningglory; [6]) was 7, the “Morningglory plant response rating” value (morningglory; [7]) was 7 and the “Morningglory plant response rating” value (morningglory; [10]) was 0. The “Morningglory plant response rating” value (morningglory; [11]) was 2, the “B. signalgrass plant response rating” value (surinam grass; Rate 31 g/ha, visual rating, scale 0 to 10 (0 no effect, 10 complete control)) was 0 and the “Plant response rating, B. signalgrass” value (surinam grass; Rate 62 g/ha, scale 0 to 10, 0 is no effect, 10 is complete control) was 0. The “B. signalgrass plant response rating” value (surinam grass; Rate 125 g/ha, scale of 0 to 10 where 0 is no effect and 10 is complete control) was 0, the “B. signalgrass plant response rating” value (surinam grass; Rate 250 g/ha, scale 0 to 10, 0 is no effect, 10 is complete control) was 0 and the “Sugarbeets plant response rating” value (sugar beet; [5]) was 0. The “Plant response rating, Sugarbeets” value (sugar beet; [6]) was 0, the “Sugarbeets plant response rating” value (sugar beet; [10]) was 0 and the “Sugarbeets plant response rating” value (sugar beet; [11]) was 0. The “Sugarbeets plant response rating” value (sugar beet; [12]) was 3, the “Wheat plant response rating” value (wheat; [5]) was 0 and the “Plant response rating, Wheat” value (wheat; [6]) was 0. The “Wheat plant response rating” value (wheat; [10]) was 0, the “Wheat plant response rating” value (wheat; [11]) was 2 and the “Wheat plant response rating” value (wheat; [12]) was 0.
